Results from patent US20230295087A1, “AGONISTS OF ROR GAMMAt” (BRISTOL-MYERS SQUIBB COMPANY, priority 2019, published 2023).

The molecules below were run against T1, human RORgT (Homo sapiens, UniProt P51449) (assay: RORgT Gal4 Luciferase Reporter Gene Assay). Settings: engineered Jurkat cells overexpressing RORgT (LBD or full length) fused with Gal4 Luc reporter; 18 hours at 37° C.; luminescence.
T1 construct: expressed in transfected cells
T1 sequence (P51449 267-516): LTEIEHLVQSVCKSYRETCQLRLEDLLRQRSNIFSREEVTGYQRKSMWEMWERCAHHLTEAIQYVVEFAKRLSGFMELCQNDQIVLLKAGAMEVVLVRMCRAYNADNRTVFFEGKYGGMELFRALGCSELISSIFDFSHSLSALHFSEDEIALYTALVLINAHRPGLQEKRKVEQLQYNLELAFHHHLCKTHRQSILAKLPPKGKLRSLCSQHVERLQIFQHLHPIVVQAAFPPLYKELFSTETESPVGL
Type: cell-based
Outline: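 Jurkat cells expressing Gal4 Luc with either RORgT LBD (aa267-516) or full-length human RORgT, 10,000 cells/well, treated with compound (40 µM to 0.67 nM final, 3-fold dilutions) for 18 h at 37° C. Steady-Glo luminescence read; inhibition of constitutive activity as % signal-window reduction relative to a control compound.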

| Compound | EC50 |
| --- | --- |
| O=C(CN1CCS(=O)(=O)CC1)N1CC[C@@]2(S(=O)(=O)c3ccccc3)c3ccc(OCc4c(Cl)cccc4Cl)cc3CC[C@@H]12 [Example 74, 4-{2-[(3aR,9bR)-9b-(benzenesulfonyl)-7-[(2,6-dichlorophenyl)methoxy]-1H,2H,3H,3aH,4H,5H,9bH-benzo[e]indol-3-yl]-2-oxoethyl}-1λ^6-thiomorpholine-1,1-dione] | 14 nM |
| CS(=O)(=O)N1CC[C@@]2(S(=O)(=O)c3ccccc3)c3ccc(OCc4c(Cl)cccc4Cl)cc3CC[C@@H]12 [Example 75, (3aR,9bR)-9b-(benzenesulfonyl)-7-[(2,6-dichlorophenyl)methoxy]-3-methanesulfonyl-1H,2H,3H,3aH,4H,5H,9bH-benzo[e]indole] | 212 nM |
| O=C1CCCN1CCC(=O)N1CC[C@@]2(S(=O)(=O)c3ccccc3)c3ccc(OCc4c(Cl)cccc4Cl)cc3CC[C@@H]12 [Example 76, 1-{3-[(3aR,9bR)-9b-(benzenesulfonyl)-7-[(2,6-dichlorophenyl)methoxy]-1H,2H,3H,3aH,4H,5H,9bH-benzo[e]indol-3-yl]-3-oxopropyl}pyrrolidin-2-one] | 957 nM |
| CN1CC(C(=O)N2CC[C@@]3(S(=O)(=O)c4ccccc4)c4ccc(OCc5c(Cl)cccc5Cl)cc4CC[C@@H]23)CC1=O (stereo partly drawn) [Example 77, 4-[(3aR,9bR)-9b-(benzenesulfonyl)-7-[(2,6-dichlorophenyl)methoxy]-1H,2H,3H,3aH,4H,5H,9bH-benzo[e]indole-3-carbonyl]-1-methylpyrrolidin-2-one] | 19 nM |
| NC(=O)N1CCC(C(=O)N2CC[C@@]3(S(=O)(=O)c4ccccc4)c4ccc(OCc5ccccc5)cc4CC[C@@H]23)CC1 [Example 78, 4-[(3aR,9bR)-9b-(benzenesulfonyl)-7-(benzyloxy)-1H,2H,3H,3aH,4H,5H,9bH-benzo[e]indole-3-carbonyl]piperidine-1-carboxamide] | 140 nM |
| O=C1CCCN1CC(=O)N1CC[C@@]2(S(=O)(=O)c3ccccc3)c3ccc(OCc4c(Cl)cccc4Cl)cc3CC[C@@H]12 [Example 79, 1-{2-[(3aR,9bR)-9b-(benzenesulfonyl)-7-[(2,6-dichlorophenyl)methoxy]-1H,2H,3H,3aH,4H,5H,9bH-benzo[e]indol-3-yl]-2-oxoethyl}pyrrolidin-2-one] | 210 nM |
| O=C(N1CCOCC1)N1CC[C@@]2(S(=O)(=O)c3ccccc3)c3ccc(OCc4c(Cl)cccc4Cl)cc3CC[C@@H]12 [Example 80, 4-[(3aR,9bR)-9b-(benzenesulfonyl)-7-[(2,6-dichlorophenyl)methoxy]-1H,2H,3H,3aH,4H,5H,9bH-benzo[e]indole-3-carbonyl]morpholine] | 102 nM |
| O=C(O)C12CCC(C(=O)N3CC[C@@]4(S(=O)(=O)c5ccccc5)c5ccc(OCc6c(Cl)cccc6Cl)cc5CC[C@@H]34)(CC1)CC2 [Example 81, 4-[(3aR,9bR)-9b-(benzenesulfonyl)-7-[(2,6-dichlorophenyl)methoxy]-1H,2H,3H,3aH,4H,5H,9bH-benzo[e]indole-3-carbonyl]bicyclo[2.2.2]octane-1-carboxylic acid] | 25 nM |
| CS(=O)(=O)C1CCN(C(=O)N2CC[C@@]3(S(=O)(=O)c4ccccc4)c4ccc(OCc5c(Cl)cccc5Cl)cc4CC[C@@H]23)CC1 [Example 82, 1-[(3aR,9bR)-9b-(benzenesulfonyl)-7-[(2,6-dichlorophenyl)methoxy]-1H,2H,3H,3aH,4H,5H,9bH-benzo[e]indole-3-carbonyl]-4-methanesulfonylpiperidine] | 97 nM |
| CC1(O)CN(C(=O)N2CC[C@@]3(S(=O)(=O)c4ccccc4)c4ccc(OCc5c(Cl)cccc5Cl)cc4CC[C@@H]23)C1 [Example 83, 1-[(3aR,9bR)-9b-(benzenesulfonyl)-7-[(2,6-dichlorophenyl)methoxy]-1H,2H,3H,3aH,4H,5H,9bH-benzo[e]indole-3-carbonyl]-3-methylazetidin-3-ol] | 353 nM |
| O=C(N1CCS(=O)(=O)CC1)N1CC[C@@]2(S(=O)(=O)c3ccccc3)c3ccc(OCc4c(Cl)cccc4Cl)cc3CC[C@@H]12 [Example 84, 4-[(3aR,9bR)-9b-(benzenesulfonyl)-7-[(2,6-dichlorophenyl)methoxy]-1H,2H,3H,3aH,4H,5H,9bH-benzo[e]indole-3-carbonyl]-1λ^6-thiomorpholine-1,1-dione] | 15 nM |
| CS(=O)(=O)N1CC(NC(=O)N2CC[C@@]3(S(=O)(=O)c4ccccc4)c4ccc(OCc5c(Cl)cccc5Cl)cc4CC[C@@H]23)C1 [Example 85, (3aR,9bR)-9b-(benzenesulfonyl)-7-[(2,6-dichlorophenyl)methoxy]-N-(1-methanesulfonylazetidin-3-yl)-1H,2H,3H,3aH,4H,5H,9bH-benzo[e]indole-3-carboxamide] | 18 nM |
| CC(C)(O)CCNC(=O)N1CC[C@@]2(S(=O)(=O)c3ccccc3)c3ccc(OCc4c(Cl)cccc4Cl)cc3CC[C@@H]12 [Example 86, (3aR,9bR)-9b-(benzenesulfonyl)-7-[(2,6-dichlorophenyl)methoxy]-N-(3-hydroxy-3-methylbutyl)-1H,2H,3H,3aH,4H,5H,9bH-benzo[e]indole-3-carboxamide] | 159 nM |
| O=C(Nc1ccncc1)N1CC[C@@]2(S(=O)(=O)c3ccccc3)c3ccc(OCc4c(Cl)cccc4Cl)cc3CC[C@@H]12 [Example 87, (3aR,9bR)-9b-(benzenesulfonyl)-7-[(2,6-dichlorophenyl)methoxy]-N-(pyridin-4-yl)-1H,2H,3H,3aH,4H,5H,9bH-benzo[e]indole-3-carboxamide] | 39 nM |
| O=C(N1CC(O)C1)N1CC[C@@]2(S(=O)(=O)c3ccccc3)c3ccc(OCc4c(Cl)cccc4Cl)cc3CC[C@@H]12 [Example 88, 1-[(3aR,9bR)-9b-(benzenesulfonyl)-7-[(2,6-dichlorophenyl)methoxy]-1H,2H,3H,3aH,4H,5H,9bH-benzo[e]indole-3-carbonyl] azetidin-3-ol] | 301 nM |
| O=C(NC1CCOCC1)N1CC[C@@]2(S(=O)(=O)c3ccccc3)c3ccc(OCc4c(Cl)cccc4Cl)cc3CC[C@@H]12 [Example 89, (3aR,9bR)-9b-(benzenesulfonyl)-7-[(2,6-dichlorophenyl)methoxy]-N-(oxan-4-yl)-1H,2H,3H,3aH,4H,5H,9bH-benzo[e]indole-3-carboxamide] | 114 nM |
| CS(=O)(=O)N[C@@H]1CCCN(C(=O)N2CC[C@@]3(S(=O)(=O)c4ccccc4)c4ccc(OCc5c(Cl)cccc5Cl)cc4CC[C@@H]23)C1 [Example 90, N-[(3R)-1-[(3aR,9bR)-9b-(benzenesulfonyl)-7-[(2,6-dichlorophenyl)methoxy]-1H,2H,3H,3aH,4H,5H,9bH-benzo[e]indole-3-carbonyl]piperidin-3-yl]methanesulfonamide] | 712 nM |
| CC(C)(O)CNC(=O)N1CC[C@@]2(S(=O)(=O)c3ccccc3)c3ccc(OCc4c(Cl)cccc4Cl)cc3CC[C@@H]12 [Example 91, (3aR,9bR)-9b-(benzenesulfonyl)-7-[(2,6-dichlorophenyl)methoxy]-N-(2-hydroxy-2-methylpropyl)-1H,2H,3H,3aH,4H,5H,9bH-benzo[e]indole-3-carboxamide] | 104 nM |
| CS(=O)(=O)CCNC(=O)N1CC[C@@]2(S(=O)(=O)c3ccccc3)c3ccc(OCc4c(Cl)cccc4Cl)cc3CC[C@@H]12 [Example 92, (3aR,9bR)-9b-(benzenesulfonyl)-7-[(2,6-dichlorophenyl)methoxy]-N-(2-methanesulfonylethyl)-1H,2H,3H,3aH,4H,5H,9bH-benzo[e]indole-3-carboxamide] | 197 nM |
| CS(=O)(=O)C1CCN(C(=O)N2CC[C@@]3(S(=O)(=O)c4ccccc4)c4ccc(OCc5c(Cl)cccc5Cl)cc4CC[C@@H]23)C1 (stereo partly drawn) [Example 93, 1-[(3aR,9bR)-9b-(benzenesulfonyl)-7-[(2,6-dichlorophenyl)methoxy]-1H,2H,3H,3aH,4H,5H,9bH-benzo[e]indole-3-carbonyl]-3-methanesulfonylpyrrolidine] | 290 nM |
| CC(=O)N1CCN(C(=O)N2CC[C@@]3(S(=O)(=O)c4ccccc4)c4ccc(OCc5c(Cl)cccc5Cl)cc4CC[C@@H]23)CC1 [Example 94, 1-{4-[(3aR,9bR)-9b-(benzenesulfonyl)-7-[(2,6-dichlorophenyl)methoxy]-1H,2H,3H,3aH,4H,5H,9bH-benzo[e]indole-3-carbonyl]piperazin-1-yl}ethan-1-one] | 15 nM |
| O=C(Nc1ccnnc1)N1CC[C@@]2(S(=O)(=O)c3ccccc3)c3ccc(OCc4c(Cl)cccc4Cl)cc3CC[C@@H]12 [Example 95, (3aR,9bR)-9b-(benzenesulfonyl)-7-[(2,6-dichlorophenyl)methoxy]-N-(pyridazin-4-yl)-1H,2H,3H,3aH,4H,5H,9bH-benzo[e]indole-3-carboxamide] | 194 nM |
| O=C(N1CC[C@@]2(S(=O)(=O)c3ccccc3)c3ccc(OCc4c(Cl)cccc4Cl)cc3CC[C@@H]12)C1(O)CCOCC1 [Example 96, 4-[(3aR,9bR)-9b-(benzenesulfonyl)-7-[(2,6-dichlorophenyl)methoxy]-1H,2H,3H,3aH,4H,5H,9bH-benzo[e]indole-3-carbonyl]oxan-4-ol] | 13 nM |
| CN1CCCC(C(=O)N2CC[C@@]3(S(=O)(=O)c4ccccc4)c4ccc(OCc5c(Cl)cccc5Cl)cc4CC[C@@H]23)C1 (stereo partly drawn) [Example 97, 3-[(3aR,9bR)-9b-(benzenesulfonyl)-7-[(2,6-dichlorophenyl)methoxy]-1H,2H,3H,3aH,4H,5H,9bH-benzo[e]indole-3-carbonyl]-1-methylpiperidine] | 846 nM |
| CS(=O)(=O)N1CC(C(=O)N2CC[C@@]3(S(=O)(=O)c4ccccc4)c4ccc(OCc5c(Cl)cccc5Cl)cc4CC[C@@H]23)C1 [Example 98, 3-[(3aR,9bR)-9b-(benzenesulfonyl)-7-[(2,6-dichlorophenyl)methoxy]-1H,2H,3H,3aH,4H,5H,9bH-benzo[e]indole-3-carbonyl]-1-methanesulfonylazetidine] | 19 nM |
